System: inducible engineered cell
Test: Mesenchymal to Epithelial transition (MET) assay (D11), plasticity ratio from E-Cadherin and Vimentin markers
Type: cell-based
Details: 10 mM RA; FIG. 12A; E-Cadherin (AF 647), Vimentin (AF 488); PR with no RA 1.3
Source text: FIGS. 12A and 12B depict an assay, Mesenchymal to Epithelial transition (MET) (D11), at various concentrations of Retinoic acid (RA) assessing markers E-Cadherin and Vimentin; and RA effect on expression of E-Cadherin and Vimentin in SW480 clone 1C3, respectively, according to embodiments as disclosed herein;
FIGS. 12A and 12B are representations depicting assay for Mesenchymal to Epithelial transition (MET) (D11), at various concentrations of Retinoic acid (RA) measuring markers E-Cadherin and Vimentin; and RA effect on expression of E-Cadherin and Vimentin in SW480 clone 1C3, respectively. […] FIGS. 15A, 15B and 15C are representations depicting assay for Exosome vesicles secretion and uptake (D14), showing standard curve of exosome quantification; exosome secretion in colon cancer cells; and exosome uptake in cell lines.
Mesenchymal to Epithelial transition (MET) is the ability of the tumor cells to change from the moving cellular form, back to the growing cellular form. This is measured by detecting the change in the epithelial and mesenchymal cell markers, once cells are treated with agents promoting MET. […] Flow cytometry is used, along with imaging techniques like fluorescence markers using multiple proteins as markers, including but not limited to E cadherin, Vimentin, N Cadherin, Epcam, CD 133, CD 44, to measure MET. […]

In the case of `CC1=C(/C=C/C(C)=C/C=C/C(C)=C/C(=O)O)C(C)(C)CCC1` [RA, Retinoic acid], the “PR (plasticity ratio, mesenchymal marker Vimentin to epithelial marker E-Cadherin)” value is reported as 0.56.

Reference: US12482566B2, “Systems and methods for predicting cancer metastasis and screening of drugs” (MESTASTOP SOLUTIONS PRIVATE LIMITED, priority 2020, dated 2025)
